Values of other authors in patent EP0513922B1, “Coating for foods and agricultural products to prevent the growth of moulds” (GIST-BROCADES N.V., priority 1991, dated 1992).

Columns and labels:
[1] = in aqueous systems, depending of the presence of other substances
fungus growth = settings: to be effective against fungus growth

**Q.** Which results are given for `C[C@@H]1C/C=C/C=C/C=C/C=C/[C@H](O[C@@H]2O[C@H](C)[C@@H](O)[C@H](N)[C@@H]2O)C[C@@H]2O[C@](O)(C[C@@H](O)C[C@H]3O[C@@H]3/C=C/C(=O)O1)C[C@H](O)[C@H]2C(=O)O` [natamycin]?
**A.** solubility of natamycin [1]: 30 - 50 ppm; minimal inhibitory concentration (fungus growth): less than 10 ppm
